{"source": "patent US20240252581A1", "about": "“COMPOSITIONS AND METHODS FOR TREATING RESPIRATORY DISTRESS” (S.I.S. SHULOV INNOVATIVE SCIENCE LTD., priority 2021, published 2024)", "system": "inflammatory cytokines in BALF", "test": "LPS-induced acute lung injury / ARDS mouse model: BALF cytokine concentrations (multiplex ELISA)", "type": "in vivo, BALB/c mice", "design": "key to INF-γ / IL-1α / IL-5 / IL-6 / IL-10 / IL-12 / IL-17 / KC / MCP-1 / TNF-α / CXCL10 / RANTES / G-CSF / CCL3: (+) indicates activation; (−) indicates inhibition", "procedure": "In order to test the efficacy of ZEP3 sodium on lung inflammation, the lipopolysaccharide (LPS)-induced acute lung injury model was used. In particular, LPS was administered intratracheally at doses of 10 or 40 mg/kg body weight (BW) corresponding to 0.2 or 0.8 mg/mouse, respectively.\nZEP3 sodium was administered by inhalation (INH) at doses of 25 or 250 mg/kg BW (0.5 or 5 mg/mouse, respectively), or intratracheally (IT) at doses of 5 or 20 mg/kg BW (0.1 or 0.4 mg/mouse, respectively) 6 hours after LPS administration and its effect was measured 72 hours following administration in the branchial alveolar fluid (BALF) using FACS instrumentation.\nTo detect cytokine release in lungs fluid, cytokine concentrations were assessed in BALF samples using high sensitivity multiplex ELISA assays for: IFN-γ, IL-1α, IL-5, IL-6, IL-10, IL-12 (p70), IL-17A, KC, MCP-1, TNF-α, IP-10, RANTES, G-CSF, MIP-1α and RANTES. ZEP3Na administered intratracheally at 0.1 and 0.4 mg per mouse after instillation of 0.2 mg LPS inhibited the concentration of following interleukins: IL-1α, IL-6, IL-10, IL-12, IL-17, KC, MCP-1, TNF-α and G-CSF.", "key": {"[1]": {"conditions": "Group 9: LPS 0.2 mg + ZEP3Na 0.4 mg IT, BALF, group mean"}, "[2]": {"conditions": "Group 9: LPS 0.2 mg + ZEP3Na 0.4 mg IT, BALF, individual mice"}, "[3]": {"conditions": "LPS 0.2 mg + ZEP3Na (IT) 0.1 mg, BALF"}, "[4]": {"conditions": "LPS 0.2 mg + ZEP3Na (IT) 0.4 mg, BALF"}, "[5]": {"conditions": "LPS 0.8 mg + ZEP3Na (INH) 0.5 mg, BALF"}, "[6]": {"conditions": "LPS 0.8 mg + ZEP3Na (INH) 5 mg, BALF"}, "[7]": {"conditions": "LPS 0.8 mg + ZEP3Na (IT) 0.1 mg, BALF"}, "[8]": {"conditions": "LPS 0.8 mg + ZEP3Na (IT) 0.4 mg, BALF"}}, "note": "“And” between values parts separate entries of the source, which are not always exact repeats. Equal values may be shown once. Square brackets hold non-standard residues; d marks the D form. Peptide text beside a SMILES is read from it. * marks the point of attachment. pGlu = O=C1CC[C@@H](C(=O)O)N1; Octanoyl = CCCCCCCC(=O)*", "data": [{"smiles": "CCCCCCCC(=O)NCCCC[C@H](NC(=O)[C@H](Cc1c[nH]c2ccccc12)NC(=O)[C@H](CC(N)=O)NC(=O)[C@@H]1CCC(=O)N1)C(=O)O", "note": "[ZEP3Na, pGlu-Asn-Trp-Lys(Octanoyl)-ONa] ([pGlu]NWK(Octanoyl)-OH)", "values": [{"measurement": "IL-17A", "setting": "[1]", "value": 584.07, "unit": "pg/mL"}, {"measurement": "KC", "setting": "[1]", "value": 751.10, "unit": "pg/mL"}, {"measurement": "MCP-1", "setting": "[1]", "value": 180.27, "unit": "pg/mL"}, {"measurement": "G-CSF", "setting": "[2]", "value": "176.85 pg/mL and 200.57 pg/mL and 585.70 pg/mL and 211.19 pg/mL and 8.45 pg/mL and 138.72 pg/mL and 227.63 pg/mL"}, {"measurement": "G-CSF (pg/ml)", "setting": "[2]", "value": "undetected"}, {"measurement": "IL-12 (p70)", "setting": "[2]", "value": "408.22 pg/ml and 471.74 pg/ml and 15.41 pg/ml (2×) and 262.69 pg/ml and 11.53 pg/ml and 8.09 pg/ml and 115.45 pg/ml and 140.60 pg/ml"}, {"measurement": "IL-17A", "setting": "[2]", "value": "386.05 pg/mL and 1361.97 pg/mL and 15.26 pg/mL and 3386.75 pg/mL and 22.20 pg/mL and 4.57 pg/mL and 2.99 pg/mL and 21.13 pg/mL and 55.67 pg/mL"}, {"measurement": "KC", "setting": "[2]", "value": "1154.03 pg/mL and 1559.44 pg/mL and 1143.16 pg/mL and 1153.90 pg/mL and 127.59 pg/mL and 63.82 pg/mL and 75.31 pg/mL and 656.41 pg/mL and 826.24 pg/mL"}, {"measurement": "MCP-1", "setting": "[2]", "value": "240.17 pg/mL and 115.81 pg/mL and 823.17 pg/mL and 151.55 pg/mL and 14.15 pg/mL and 102.63 pg/mL and 174.95 pg/mL"}, {"measurement": "MCP-1 (pg/ml)", "setting": "[2]", "value": "undetected"}, {"measurement": "CXCL10", "setting": "[3]", "value": "−"}, {"measurement": "G-CSF", "setting": "[3]", "value": "−"}, {"measurement": "IL-1α", "setting": "[3]", "value": "−"}, {"measurement": "IL-6", "setting": "[3]", "value": "−"}, {"measurement": "IL-10", "setting": "[3]", "value": "−"}, {"measurement": "IL-12", "setting": "[3]", "value": "−"}, {"measurement": "IL-17", "setting": "[3]", "value": "−"}, {"measurement": "KC", "setting": "[3]", "value": "−"}, {"measurement": "MCP-1", "setting": "[3]", "value": "−"}, {"measurement": "TNF-α", "setting": "[3]", "value": "−"}, {"measurement": "CXCL10", "setting": "[4]", "value": "−"}, {"measurement": "G-CSF", "setting": "[4]", "value": "−"}, {"measurement": "IL-1α", "setting": "[4]", "value": "−"}, {"measurement": "IL-6", "setting": "[4]", "value": "−"}, {"measurement": "IL-10", "setting": "[4]", "value": "−"}, {"measurement": "IL-12", "setting": "[4]", "value": "−"}, {"measurement": "IL-17", "setting": "[4]", "value": "−"}, {"measurement": "KC", "setting": "[4]", "value": "−"}, {"measurement": "MCP-1", "setting": "[4]", "value": "−"}, {"measurement": "TNF-α", "setting": "[4]", "value": "−"}, {"measurement": "CCL3", "setting": "[5]", "value": "−"}, {"measurement": "CXCL10", "setting": "[5]", "value": "−"}, {"measurement": "G-CSF", "setting": "[5]", "value": "−"}, {"measurement": "IL-1α", "setting": "[5]", "value": "−"}, {"measurement": "IL-5", "setting": "[5]", "value": "−"}, {"measurement": "IL-6", "setting": "[5]", "value": "−"}, {"measurement": "IL-10", "setting": "[5]", "value": "+"}, {"measurement": "IL-12", "setting": "[5]", "value": "−"}, {"measurement": "IL-17", "setting": "[5]", "value": "−"}, {"measurement": "INF-γ", "setting": "[5]", "value": "−"}, {"measurement": "KC", "setting": "[5]", "value": "−"}, {"measurement": "MCP-1", "setting": "[5]", "value": "−"}, {"measurement": "RANTES", "setting": "[5]", "value": "−"}, {"measurement": "TNF-α", "setting": "[5]", "value": "−"}, {"measurement": "CCL3", "setting": "[6]", "value": "−"}, {"measurement": "CXCL10", "setting": "[6]", "value": "−"}, {"measurement": "G-CSF", "setting": "[6]", "value": "−"}, {"measurement": "IL-1α", "setting": "[6]", "value": "−"}, {"measurement": "IL-5", "setting": "[6]", "value": "−"}, {"measurement": "IL-6", "setting": "[6]", "value": "−"}, {"measurement": "IL-10", "setting": "[6]", "value": "+"}, {"measurement": "IL-12", "setting": "[6]", "value": "−"}, {"measurement": "IL-17", "setting": "[6]", "value": "−"}, {"measurement": "INF-γ", "setting": "[6]", "value": "−"}, {"measurement": "KC", "setting": "[6]", "value": "−"}, {"measurement": "MCP-1", "setting": "[6]", "value": "−"}, {"measurement": "RANTES", "setting": "[6]", "value": "−"}, {"measurement": "TNF-α", "setting": "[6]", "value": "−"}, {"measurement": "IL-12", "setting": "[7]", "value": "−"}, {"measurement": "TNF-α", "setting": "[7]", "value": "−"}, {"measurement": "IL-12", "setting": "[8]", "value": "−"}, {"measurement": "TNF-α", "setting": "[8]", "value": "−"}, {"measurement": "levels of INF-γ, IL-1α, IL-5, IL-6, IL-12, IL-17, KC, MCP-1, TNF-α, CXCL10, RANTES, G-CSF, and CCL3", "setting": "administered by inhalation following LPS instillation", "value": "significantly inhibited the expression and reduced the levels"}, {"measurement": "levels of IL-1α, IL-6, IL-10, IL-12, IL-17, KC, MCP-1, TNF-α, CXCL10, and G-CSF", "setting": "administered intratracheally following LPS instillation", "value": "significantly inhibited the expression and reduced the levels"}, {"measurement": "concentration of IL-1α, IL-6, IL-10, IL-12, IL-17, KC, MCP-1, TNF-α and G-CSF", "setting": "intratracheally at 0.1 and 0.4 mg per mouse after instillation of 0.2 mg LPS, BALF", "value": "inhibited"}]}]}
